In patent US5317022A, “Pharmaceutical composition and use” (priority 1991, dated 1994):
Like-named read-outs stand apart in the source and are kept apart here.

Columns and labels:
rat [1] = experiment: analgetic effect, hot plate (rat); type: in vivo
rat [2] = experiment: analgetic effect, tail flick (rat); type: in vivo
mice [3] = experiment: analgetic effect, writhing test (mice); type: in vivo
rats [4] = experiment: sedative (narcosis potentiating) effect, Inactine base narcotic, rats; type: in vivo
Protocol: Inactine (35 mg/kg) was used as a base narcotic.
*ED500 % = dose increasing narcosis to five times the control.

rat [5] = settings: dose giving 100% activity
mice [6] = experiment: physical dependency, jumping test on mice; settings: treatment 7 x 100 mg/kg ip.; naloxone 50 mg/kg ip.
[7] = target: (^3 H)naloxone binding sites; experiment: competition binding assay with (3H)naloxone on rat brain membranes; settings: membranes incubated with (3H)naloxone 1 nM and increasing ligand concentrations; read-out: Affinity constants (Ki nM) in competition assays
Protocol: (§1) Membrane preparation: A crude membrane fraction from rat brain (PVG/C strain) was prepared [Mol. Pharm.11 (1975) 340-351 and the protein content was defined [Anal. Biochem. 72(1976) 248-254).
(§2) The membrane suspension (200-400 μg protein) was incubated with the specific radioligand for 1 hour on ice. Incubations were terminated by rapid filtration under vacuo followed by washing with ice cold tris HCl buffer (50 mM, pH 7,4). Radioactivity was measured in a toluene based scintillation mixture on a LKB Minibeta Liquid Scintillation Spectrophotometer. Nonspecific binding was defined in the presence of 10 μM unlabeled naloxone. All assays were performed in triplicate and repeated several times. Ki values were determined from equilibrium experiments and calculated with the Tshang-Prusov equation. The data were evaluated using the Ligand program [Anal. Biol. Chem. 107 (1980) 220-239](Data shown on Table III/1).

rabbits [8] = experiment: effects on respiration on conscious rabbits (III.5, Marey-drum)
Protocol: Investigation was carried out on conscious rabbits of both sexes and of 3-4 kg weight by way of a Marey-drum. Frequency and amplitude of respiration were quantitatively evaluated.

rabbits [9] = experiment: effect on respiration on conscious rabbits (III.6, type A/B/C tests); type: in vivo; set-up: resp. change ampl.: unit not given here
Protocol: The method as described above in Example III.5 was used on conscious rabbits of 2,5-3 kg weight. Registration was continued for 3-4 hours. The samples were injected under the skin of the neck and the respiration parameters were registered at intervals of 10 minutes.

mice [10] = settings: in vivo
rat [11] = experiment: animal or person; settings: read-out: algolyt. test (rat) 100% activity
rats [12] = system: rats
[13] = target: (^3 H)naloxone binding sites; experiment: wash-resistant binding of (3H)naloxone, rat brain membranes; settings: preincubated with (3H)naloxone 1 nM and test compound; remaining specific binding after several washings; average of 2-4 data; compound.HCl; read-out: Ki (nM), affinity constants
Protocol: as §1, §2
After preincubation a thorough washing was performed. [Life Sci. 32 (1983) 2777-2784]. Control values are represented by the specific binding of (3H)naloxone to membranes preincubated with a buffer and treated in the same way. Heterologous displacement experiments were used to evaluate the affinity of the investigated compounds for (^3 H)naloxone binding sites.

[14] = s.c. on rats, Inactine 35 mg/kg, dose as base
[15] = type A: OH 0.25 mg/kg s.c., 20 min
[16] = type A: OH 0.25 mg/kg s.c., 30 min
[17] = type A: OH 0.25 mg/kg s.c., then morphine 5 mg/kg s.c., 10 min
[18] = type C: OH 0.25 mg/kg with morphine 5 mg/kg s.c., 20 min
[19] = OS 0.025 mg/kg s.c. (20 min), morphine 5 mg/kg s.c., 20 min
[20] = OS 0.025 mg/kg s.c. (30 min), morphine 5 mg/kg s.c., 30 min
[21] = OS 0.025 mg/kg s.c., 10 min (before morphine)
[22] = OS 0.50 mg/kg s.c. (30 min), morphine 20 mg/kg s.c., 20 min

For `CN1CC[C@]23c4c5ccc(O)c4O[C@H]2[C@@H](O)C=C[C@H]3[C@H]1C5` [Morphine, reference compound], the “hot plate (rat) ED50” value (rat [1]; rat) was 3,6 mg/kg, the “tail flick (rat) ED50” value (rat [2]; rat) was 1,8 mg/kg and the “writhing test (mice) ED50” value (mice [3]; mice) was 0,45 mg/kg. The “ED500 % (dose increasing narcosis to five times the control)” value (rats [4]; [14]) was 1,75 mg/kg, the “algolyt. test (rat) 100% activity” value (rat [5]) was 15,0 mg/kg and the “% relation of jumping animals” value (mice [6]) was 100%. For the same compound, the “number of jumps/mouse (average)” value (mice [6]) was 34,5.

`COc1ccc2c3c1O[C@H]1C(=NN)CC[C@@]4(O)[C@@H](C2)N(C)CC[C@]314` [Oxycodone hydrazone, 14-OH-DIHYDROCODEINONE-HYDRAZONE (TRANS)] gave a Ki [7] of 800 nM, an ED50 (rat [1]; Rattus norvegicus; read-out: hot plate (rat) ED50) of 0.46 mg/kg and an ED50 (rat [2]; Rattus norvegicus; read-out: tail flick (rat) ED50) of 0.65 mg/kg. The ED50 (mice [3]; Mus musculus; read-out: writhing test (mice) ED50) was 0.35 mg/kg, the “ED500 % (dose increasing narcosis to five times the control)” value (rats [4]; rat, in vivo) was 0,45 mg/kg and the “potentiation of Inactine narcosis (in words)” value (rats [4]; rat, in vivo) was “most effectively prolongated”. For the same compound, the “volume and frequency of respiration (in words)” value (rabbits [8]; 50 μg/kg dose) was “increases both the volume and the frequency of respiration”, the “respiration effect (printed over two lines: slight reversion)” value (rabbits [8]; rabbit, in vivo) was “reversion” and the “reversal of morphine respiratory depression (in words)” value (rabbits [8]; rabbit, in vivo) was “a partial reversal takes place”. For the same compound, the respiration frequency/min. (rabbits [8]; rabbit, in vivo, sc) was “.uparw”, the respiration volume (rabbits [8]; rabbit, in vivo, sc) was “.uparw” and the resp. change ampl. (rabbits [9]; [15]) was “+20”. The resp. change fr/min (rabbits [9]; [15]) was “+150”, the resp. change ampl. (rabbits [9]; [16]) was “+20” and the resp. change fr/min (rabbits [9]; [16]) was “+127”. The resp. change ampl. (rabbits [9]; [17]) was -30, the resp. change fr/min (rabbits [9]; [17]) was -36 and the resp. change ampl. (rabbits [9]; [18]) was “+10”. For the same compound, the resp. change fr/min (rabbits [9]; [18]) was “+30”, the “number of jumps/mouse (average)” value (mice [10]) was 1,5 and the “% relation of jumping animals” value (mice [10]; mouse) was 50%. The ED100 (rat [11]) was 10 mg/kg.

`COc1ccc2c3c1O[C@H]1C(=O)CC[C@@]4(O)[C@@H](C2)N(C)CC[C@]314` [Oxycodone, reference compound] was tested, and the “hot plate (rat) ED50” value (rat [1]; rat) was 0.92 mg/kg, the “tail flick (rat) ED50” value (rat [2]; rat) was 0,68 mg/kg and the “writhing test (mice) ED50” value (mice [3]; mice) was 0,45 mg/kg. For the same compound, the “ED500 % (dose increasing narcosis to five times the control)” value (rats [4]; [14]) was 1,2 mg/kg, the respiration effect (rabbits [8]; 10-2500 μg/kg i.v., s.c.) was “depression” and the respiration frequency/min. (rabbits [8]; 10-2500 μg/kg i.v., s.c.) was “.dwnarw”. For the same compound, the respiration volume (rabbits [8]; 10-2500 μg/kg i.v., s.c.) was “.dwnarw”, the “influence on the respiratory depression effect of morphine (in words)” value (rabbits [8]; rabbit, in vivo) was “unambiguously potentiate the respiratory depression effect of morphine” and the “respiratory depression by the compound alone (in words)” value (rabbits [8]; s.c., dihydrocodeinone 50-2500 μg/kg, oxycodone 10-2500 μ/kg) was “cause respiratory depression”. For the same compound, the “algolyt. test (rat) 100% activity” value (rat [5]) was 2,2 mg/kg, the “change of morphine toxicity (in words)” value (rats [12]; administered together with morphine, s.c.) was “potentiate toxicity of morphine” and the “Combination LD50 / morphine LD50” value (rats [12]; test substance 10 mg/kg s.c.) was 0,57.

Work on `COc1ccc2c3c1O[C@H]1C(=NNC(N)=O)CC[C@@]4(O)[C@@H](C2)N(C)CC[C@]314` [Oxycodone-semicarbazone, 14-OH-DIHYDROCODEINONE-SEMICARBAZONE (TRANS)] yielded a Ki [7] of 588 nM, a Ki [13] of 588 nM and an ED50 (rat [1]; Rattus norvegicus, read-out: hot plate (rat) ED50) of 0.58 mg/kg. For the same compound, the ED50 (rat [2]; Rattus norvegicus, read-out: tail flick (rat) ED50) was 0.35 mg/kg, the ED50 (mice [3]; Mus musculus, read-out: writhing test (mice) ED50) was 0.15 mg/kg and the “ED500 % (dose increasing narcosis to five times the control)” value (rats [4]; rat, in vivo) was 1,5 mg/kg. The “respiration effect (printed over two lines: morphine-inhibition)” value (rabbits [8]; rabbit, in vivo) was “inhibition”, the respiration frequency/min. (rabbits [8]; rabbit, in vivo) was “.uparw” and the respiration volume (rabbits [8]; rabbit, in vivo) was “.uparw..dwnarw”. For the same compound, the resp. change ampl. (rabbits [9]; OS 0.01 mg/kg s.c., 10 min) was 0, the resp. change fr/min (rabbits [9]; OS 0.01 mg/kg s.c., 10 min) was “+48” and the resp. change ampl. (rabbits [9]; OS 0.01 mg/kg s.c., 30 min) was “+20”. The resp. change fr/min (rabbits [9]; OS 0.01 mg/kg s.c., 30 min) was “+51”, the resp. change ampl. (rabbits [9]; [19]) was -16 and the resp. change fr/min (rabbits [9]; [19]) was “+24”. For the same compound, the resp. change ampl. (rabbits [9]; [20]) was -20, the resp. change fr/min (rabbits [9]; [20]) was “+13” and the resp. change ampl. (rabbits [9]; [21]) was “+20”. The resp. change fr/min (rabbits [9]; [21]) was “+48”, the resp. change ampl. (rabbits [9]; OS 0.025 mg/kg s.c., 30 min) was “+20” and the resp. change fr/min (rabbits [9]; OS 0.025 mg/kg s.c., 30 min) was “+51”. For the same compound, the resp. change ampl. (rabbits [9]; OS 0.05 mg/kg s.c., 10 min) was “+75”, the resp. change fr/min (rabbits [9]; OS 0.05 mg/kg s.c., 10 min) was “+50” and the resp. change ampl. (rabbits [9]; [22]) was 0. The resp. change fr/min (rabbits [9]; [22]) was “+10”, the resp. change ampl. (rabbits [9]; OS 0.50 mg/kg s.c., 10 min) was 0 and the resp. change fr/min (rabbits [9]; OS 0.50 mg/kg s.c., 10 min) was “+36”. For the same compound, the “respiration number (in words)” value (rabbits [9]; small doses) was “considerably increase the respiration number” and the ED100 (rat [11]) was 5 mg/kg.
